Assay results: ChEMBL document CHEMBL5038651, “Design, Synthesis, and Biological Evaluation of 2-((4-Bisarylmethyl-piperazin-1-yl)methyl)benzonitrile Derivatives as HCV Entry Inhibitors” (J Med Chem, 2022)
The source made the active and inactive calls. No cut-off for these calls is given here.

Legend:
[1] = Cytotoxicity against human Huh7.5 cells assessed as reduction in cell viability incubated for 96 hrs by MTT assay; type: toxicity, cell-based, Huh-7.5; conditions: Huh7.5 cells
[2] = tested on: Hepatitis C virus; test: Antiviral activity against HCV infected in human Huh7.5 cells incubated for 72 hrs by in-cell western assay; type: functional, organism-based, Hepacivirus hominis; conditions: Huh7.5, 72 h
[3] = Selectivity index, ratio of CC50 for cytotoxicity against human Huh7.5.1 cells to EC50 for antiviral activity against HCV infected in human Huh7.5.1 cells; type: toxicity, cell-based
[4] = tested on: Hepacivirus hominis; test: Binding affinity to HCV E1 protein at 12.5 to 200 uM by SPR analysis; conditions: dose 12.5-200 µM
[5] = tested on: Hepatitis C virus; test: Antiviral activity against HCV infected in human Huh7.5 cells assessed as reduction in viral RNA level measured after 72 hrs by RT-qPCR analysis; type: functional, organism-based; conditions: Hepacivirus hominis
[6] = Selectivity index, ratio of CC50 for cytotoxicity against human Huh7.5 cells infected with HCVcc to EC50 for antiviral activity against HCVcc infected in human Huh7.5 cells; type: toxicity, cell-based; conditions: read-out: Ratio CC50/EC50
[7] = tested on: Hepatitis C virus; test: Antiviral activity against HCV infected in human Huh7.5 cells assessed as reduction in HCV core protein expression at 6.4 nM incubated for 72 hrs by in-cell western assay; type: functional, organism-based; conditions: Hepacivirus hominis
[8] = tested on: Hepatitis C virus; test: Antiviral activity against HCV infected in human Huh7.5 cells assessed as reduction in viral RNA level preincubated for 2 hrs prior to viral infection and measured after 72 hrs by RT-qPCR analysis; type: functional, organism-based; conditions: Hepacivirus hominis, time 74.0 hrs
[9] = tested on: Hepatitis C virus; test: Antiviral activity against HCV infected in human Huh7.5 cells assessed as reduction in HCV core protein expression preincubated for 2 hrs followed by viral infection and measured after 72 hrs by Western blotting analysis; type: functional, organism-based; conditions: Hepacivirus hominis, time 74.0 hrs
[10] = tested on: Hepatitis C virus; test: Antiviral activity against HCV infected in human Huh7.5 cells assessed as reduction in HCV core protein expression measured after 72 hrs by Western blotting analysis; type: functional, organism-based; conditions: Hepacivirus hominis
[11] = tested on: Hepatitis C virus; test: Antiviral activity against HCV infected in human Huh7.5 cells assessed as reduction in viral RNA level pre-infected with virus for 2 hrs followed by compound addition and measured after 72 hrs by RT-qPCR analysis; type: functional, organism-based; conditions: Hepacivirus hominis
[12] = tested on: Hepatitis C virus; test: Antiviral activity against HCV infected in human Huh7.5 cells carrying HCV subgenomic replicons assessed as inhibition of viral replication at 1.4 uM; type: functional, organism-based; conditions: Hepacivirus hominis
[13] = tested on: Hepatitis C virus; test: Antiviral activity against HCV infected in human Huh7.5 cells assessed as reduction in HCV core protein expression pre-infected with virus for 2 hrs followed by compound addition and measured after 72 hrs by Western blotting analysis; type: functional, organism-based; conditions: Hepacivirus hominis
[14] = molecular target: Histamine H1 receptor (Homo sapiens) (UniProt P35367); test: Antagonist activity against H1 receptor (unknown origin) expressed in HEK cells at 1 uM relative to control; type: functional, cell-based
Chain of Histamine H1 receptor (Homo sapiens) (P35367 whole entry): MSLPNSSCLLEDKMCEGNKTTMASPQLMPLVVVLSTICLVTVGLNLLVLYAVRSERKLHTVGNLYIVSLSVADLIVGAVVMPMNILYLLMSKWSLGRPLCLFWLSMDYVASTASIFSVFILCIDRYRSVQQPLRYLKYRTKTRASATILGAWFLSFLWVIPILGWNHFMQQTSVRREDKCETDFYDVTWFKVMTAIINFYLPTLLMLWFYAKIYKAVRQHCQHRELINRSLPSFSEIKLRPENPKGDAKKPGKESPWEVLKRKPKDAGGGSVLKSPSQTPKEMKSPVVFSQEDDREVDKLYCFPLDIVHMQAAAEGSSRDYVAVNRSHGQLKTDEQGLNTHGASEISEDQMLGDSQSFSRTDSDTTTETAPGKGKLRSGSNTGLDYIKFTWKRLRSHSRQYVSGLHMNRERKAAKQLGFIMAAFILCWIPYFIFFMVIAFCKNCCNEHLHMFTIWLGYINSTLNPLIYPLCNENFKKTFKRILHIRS

[15] = tested on: Hepatitis C virus; test: Antiviral activity against HCVcc infected in human Huh7.5 cells assessed as inhibition of viral replication; type: functional, organism-based, Hepacivirus hominis
[16] = tested on: Hepatitis C virus; test: Antiviral activity against HCV infected in human Huh7.5 cells carrying HCV subgenomic replicons assessed as inhibition of viral replication; type: functional, organism-based, Hepacivirus hominis
[17] = Cytotoxicity against human Huh7.5 cells infected with HCVcc assessed as reduction in cell viability incubated for 96 hrs by MTT assay; type: toxicity, cell-based, Huh-7.5
[18] = Cytotoxicity against human Huh7.5 cells carrying HCV subgenomic replicons assessed as reduction in cell viability incubated for 96 hrs by MTT assay; type: toxicity, cell-based, Huh-7.5

| Compound | CC50 at 96 h [1] | EC50 [2] | selectivity ratio ([3]; read-out: Ratio CC50/EC50) | other results |
| --- | --- | --- | --- | --- |
| COCCOc1ccc(C#N)c(CN2CCN(C(c3ccc(F)cc3)c3ccc(F)cc3)CC2)c1 | 6.45 µM | > 20 µM | – | – |
| CN(C)CCN(C)c1ccc(C#N)c(CN2CCN(C(c3ccc(F)cc3)c3ccc(F)cc3)CC2)c1 | 7.81 µM | 0.008 µM | 976 | Activity [4]: Active |
| CN(C)CCN(C)c1ccc(C#N)c(CN2CCN([C@@H](c3ccccc3)c3ccc(Cl)cc3)CC2)c1 | 8.78 µM | 0.016 µM | 549 | – |
| CN(C)CCN(C)c1ccc(C#N)c(CN2CCN(C(c3ccccc3)c3ccc(Cl)cc3)CC2)c1 (centres undefined) | 5.66 µM | 0.004 µM | 1410 | Activity [5]: inactive; selectivity ratio [6]: 649; Activity [7]: Active; Activity [8]: inactive; Activity [9]: inactive; Activity [10]: Active; Activity [11]: Active; Activity [12]: inactive; Activity [13]: Active; Activity [14]: inactive |
| CC(C)OC(=O)[C@H](C)N[P@](=O)(OC[C@H]1O[C@@H](n2ccc(=O)[nH]c2=O)[C@](C)(F)[C@@H]1O)Oc1ccccc1 [SOFOSBUVIR] | > 200 µM | 0.082 µM | > 2440 | EC50 [15]: 0.129 µM; selectivity ratio [6]: 1330; Activity [7]: inactive; EC50 [16]: 0.18 µM; selectivity ratio ([3]; read-out: Ratio): > 3280; CC50 at 96 h [17]: 171 µM; CC50 at 96 h [18]: 121 µM; Activity [4]: inactive |
| CN(C)CCN(C)c1ccc(C#N)c(CN2CCN(C(c3ccc(Cl)cc3)c3ccc(Cl)cc3)CC2)c1 | 3.33 µM | 0.003 µM | – | – |
| N#Cc1ccc(NCCCn2ccnc2)cc1CN1CCN(C(c2ccc(Cl)cc2)c2ccc(Cl)cc2)CC1 | > 20 µM | 0.11 µM | > 182 | – |
| CC(c1ccccc1)N1CCN(Cc2cc(N(C)CCN(C)C)ccc2C#N)CC1 (centres undefined) | 44.1 µM | 1.03 µM | 43 | – |
| CN1CCCN(c2ccc(C(F)(F)F)c(CN3CCN(C(c4ccc(F)cc4)c4ccc(F)cc4)CC3)c2)CC1 | 1.45 µM | 0.007 µM | 206 | – |
| CN1CCCN(c2ccc(C(F)(F)F)c(CN3CCN(C(c4ccccc4)c4ccc(Cl)cc4)CC3)c2)CC1 (centres undefined) | 1.29 µM | 0.083 µM | 15 | – |
| CNCCN(C)CCN(C)c1ccc(C#N)c(CN2CCN(C(c3ccccc3)c3ccc(Cl)cc3)CC2)c1 (centres undefined) | 4.71 µM | 0.095 µM | 49 | – |
| N#Cc1ccc(NCCCn2ccnc2)cc1CN1CCN(C(c2ccc(F)cc2)c2ccc(F)cc2)CC1 | 5.89 µM | 0.162 µM | 36 | – |
| N#Cc1ccc(NCCCn2ccnc2)cc1CN1CCN(C(c2ccccc2)c2ccccc2)CC1 | > 20 µM | 0.243 µM | > 82 | – |
| CN1CCCN(c2ccc(C#N)c(CN3CCN(c4ccc(Cl)cc4)CC3)c2)CC1 | 9.59 µM | 0.11 µM | 87 | – |
| CN(C)CCN(C)c1ccc(C#N)c(CN2CCN(c3ccc(C(F)(F)F)cc3)CC2)c1 | 13.2 µM | 0.013 µM | 1010 | – |
| CN(C)CCN(C)c1ccc(C#N)c(CN2CCN(Cc3ccc(Cl)cc3)CC2)c1 | 18.1 µM | 1.04 µM | 17 | – |

| Compound | CC50 at 96 h [1] | EC50 [2] | selectivity ratio ([3]; read-out: Ratio CC50/EC50) | other results |
| --- | --- | --- | --- | --- |
| CN(C)CCN(C)c1ccc(C#N)c(CN2CCN([C@H](c3ccccc3)c3ccc(Cl)cc3)CC2)c1 | 8.23 µM | 0.01 µM | 823 | – |
| COCCOc1ccc(C#N)c(CN2CCN(c3ccc(C(F)(F)F)cc3)CC2)c1 | 2.97 µM | 1.52 µM | – | – |
| CN1CCCN(c2ccc(C(F)(F)F)c(CN3CCN(c4ccc(Cl)cc4)CC3)c2)CC1 | 2.56 µM | 0.003 µM | 855 | – |
| CN(C)CCN(C)CCN(C)c1ccc(C#N)c(CN2CCN(C(c3ccccc3)c3ccc(Cl)cc3)CC2)c1 (centres undefined) | 6.34 µM | 0.073 µM | 87 | – |
| CN1CCCN(c2ccc(C#N)c(CN3CCN(C(=O)c4ccc(F)cc4)CC3)c2)CC1 | 13.8 µM | > 4 µM | – | – |
| CN(C)CCN(C)c1ccc(C#N)c(CN2CCN(Cc3ccc(F)cc3)CC2)c1 | 52.7 µM | 3.56 µM | 14 | – |
| CN(C)CCN(C)c1ccc(C#N)c(CN2CCN(C(=O)c3ccc(Cl)cc3)CC2)c1 | 10.1 µM | 12.2 µM | – | – |
| CC(c1ccccc1)N1CCN(Cc2cc(N3CCCN(C)CC3)ccc2C#N)CC1 (centres undefined) | 31.3 µM | 0.956 µM | 33 | – |
| CN1CCN(C(c2ccccc2)c2ccc(Cl)cc2)CC1 (centres undefined) [CHLORCYCLIZINE] | – | – | – | EC50 [15]: 0.0676 µM; selectivity ratio [6]: 456; Activity [7]: inactive; EC50 [16]: > 1.6 µM; CC50 at 96 h [17]: 30.8 µM; CC50 at 96 h [18]: 30.2 µM; inhibition ([14]; filed as antagonist): 99% |
| CN1CCCN(c2ccc(C#N)c(CN3CCN([C@@H](c4ccccc4)c4ccc(Cl)cc4)CC3)c2)CC1 | > 20 µM | 0.055 µM | > 364 | – |
| CN1CCCN(c2ccc(C#N)c(CN3CCN(Cc4ccccc4)CC3)c2)CC1 | > 100 µM | 21.1 µM | – | – |
| CN(C)CCN(C)c1ccc(C(F)(F)F)c(CN2CCN(C(c3ccccc3)c3ccc(Cl)cc3)CC2)c1 (centres undefined) | 6.96 µM | 0.271 µM | 26 | – |
| N#Cc1ccc(NCCCn2ccnc2)cc1CN1CCN(C(c2ccccc2)c2ccc(Cl)cc2)CC1 (centres undefined) | 5.38 µM | 0.22 µM | 24 | – |
| CN(C)CCN(C)c1ccc(C#N)c(CN2CCN(C(c3ccccc3)c3ccccc3)CC2)c1 | > 20 µM | 0.045 µM | > 444 | – |
| CN1CCCN(c2ccc(C#N)c(CN3CCN(C(=O)c4ccc(Cl)cc4)CC3)c2)CC1 | 9.7 µM | > 4 µM | – | – |
